Literature values, collected in patent US9278101B2, “Ophthalmologic irrigation solutions and method” (Omeros Corporation, priority 2002, dated 2016).

How the values were obtained:
[1] = in vivo
[2] = system: non-adrenoceptor imidazoline binding sites
[3] = system: alpha-1 receptor subtypes; conditions: three alpha-1 receptor subtypes

| affinity for non-adrenoceptor imidazoline binding sites [2] | Compound | also measured |
| --- | --- | --- |
| – | tropicamide | half-life [1]: 4 to 6 h |
| high affinity (nanomolar) | Clc1cccc(Cl)c1N=C1NCCN1 [clonidine] | – |
| – | COc1cc2nc(N3CCN(C(=O)c4ccco4)CC3)nc(N)c2cc1OC [prazosin] | affinity for alpha-1 receptor subtypes [3]: high affinity (subnanomolar) |
| high affinity (nanomolar) | Brc1c(NC2=NCCN2)ccc2nccnc12 [UK14304, 5-bromo-N-(4,5-dihydro-1H-imidazol-2-yl)-6-quinoxalinamine] | – |
| high affinity (nanomolar) | c1ccc2c(c1)OCC(C1=NCCN1)O2 (stereo not drawn) [idazoxan] | – |
| high affinity (nanomolar) | Cc1cc(C(C)(C)C)c(O)c(C)c1CC1=NCCN1 [oxymetazoline] | – |
